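48-hour exposure; five concentrations; linearly interpolated endpoints. TGI: concentration producing complete growth inhibition.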

One assay relates to HL-60(TB) leukemia. Kind of assay: DTP human tumour cell line panel, 48 h.
The term TGI denotes the concentration at which net growth stops. High values mean lower sensitivity of the cells, low ones greater sensitivity of the cells. Turning to `COc1ccc(C2c3cc(OC)c(OC)cc3C(Cc3ccc([N+](=O)[O-])cc3)C2c2ccc([N+](=O)[O-])cc2)cc1OC` (configuration not stated), the concentration for total growth inhibition (TGI) is more than 100 µM.

`O=C1c2ccc3c4ccccc4n(Cc4ccccc4)c3c2C(=O)N1c1ccccc1` had a concentration for total growth inhibition (TGI) of more than 44.7 µM.

Take `O=C1[C@H]2ON(c3ccccc3)C(c3ccc(Cl)cc3)[C@H]2C(=O)N1c1ccc(Cc2ccc(N3C(=O)[C@@H]4ON(c5ccccc5)C(c5ccc(Cl)cc5)[C@@H]4C3=O)cc2)cc1` (some centres not stated): the TGI was more than 100 µM.

Turning to `Oc1cc(C2OCCCO2)cc(O)c1O`, the TGI is more than 100 µM.

The next assay has as its system HOP-18 NSCLC. Kind of assay: DTP human tumour cell line panel, 48 h.
Regarding `O=C1c2ccc3c4ccccc4n(Cc4ccccc4)c3c2C(=O)N1c1ccccc1`, the TGI was 24.4 µM.

Regarding `O=C1[C@H]2ON(c3ccccc3)C(c3ccc(Cl)cc3)[C@H]2C(=O)N1c1ccc(Cc2ccc(N3C(=O)[C@@H]4ON(c5ccccc5)C(c5ccc(Cl)cc5)[C@@H]4C3=O)cc2)cc1` (some centres not stated), the total growth inhibition concentration (TGI) is more than 100 µM.

`Oc1cc(C2OCCCO2)cc(O)c1O` gave a total growth inhibition concentration (TGI) of more than 100 µM.

A further assay deals with HOP-62 NSCLC. Kind of assay: DTP human tumour cell line panel, 48 h.
Consider `COc1ccc(C2c3cc(OC)c(OC)cc3C(Cc3ccc([N+](=O)[O-])cc3)C2c2ccc([N+](=O)[O-])cc2)cc1OC` (configuration not stated), for which the TGI is more than 100 µM.

For the compound `O=C1c2ccc3c4ccccc4n(Cc4ccccc4)c3c2C(=O)N1c1ccccc1`, the concentration for total growth inhibition (TGI) was more than 57.6 µM.

Turning to `O=C1[C@H]2ON(c3ccccc3)C(c3ccc(Cl)cc3)[C@H]2C(=O)N1c1ccc(Cc2ccc(N3C(=O)[C@@H]4ON(c5ccccc5)C(c5ccc(Cl)cc5)[C@@H]4C3=O)cc2)cc1` (some centres not stated), the TGI is more than 100 µM.

`Oc1cc(C2OCCCO2)cc(O)c1O` gave a TGI of more than 100 µM.

Another assay relates to HOP-92 NSCLC. Nature of the assay: DTP human tumour cell line panel, 48 h.
In turn, `COc1ccc(C2c3cc(OC)c(OC)cc3C(Cc3ccc([N+](=O)[O-])cc3)C2c2ccc([N+](=O)[O-])cc2)cc1OC` (configuration not stated) showed a TGI of more than 100 µM.

In turn, `O=C1c2ccc3c4ccccc4n(Cc4ccccc4)c3c2C(=O)N1c1ccccc1` had a TGI of 26.9 µM.

The next assay concerns HT29 colon. Kind of assay: DTP human tumour cell line panel, 48 h.
In the case of `COc1ccc(C2c3cc(OC)c(OC)cc3C(Cc3ccc([N+](=O)[O-])cc3)C2c2ccc([N+](=O)[O-])cc2)cc1OC` (configuration not stated), the total growth inhibition concentration (TGI) is more than 100 µM.

In turn, `O=C1c2ccc3c4ccccc4n(Cc4ccccc4)c3c2C(=O)N1c1ccccc1` showed a total growth inhibition concentration (TGI) of 39.2 µM.

`O=C1[C@H]2ON(c3ccccc3)C(c3ccc(Cl)cc3)[C@H]2C(=O)N1c1ccc(Cc2ccc(N3C(=O)[C@@H]4ON(c5ccccc5)C(c5ccc(Cl)cc5)[C@@H]4C3=O)cc2)cc1` (some centres not stated) showed a concentration for total growth inhibition (TGI) of more than 100 µM.

Compound `Oc1cc(C2OCCCO2)cc(O)c1O` returned a TGI of more than 100 µM.

For another assay, the system named is IGROV1 ovarian. Nature of the assay: DTP human tumour cell line panel, 48 h.
Compound `COc1ccc(C2c3cc(OC)c(OC)cc3C(Cc3ccc([N+](=O)[O-])cc3)C2c2ccc([N+](=O)[O-])cc2)cc1OC` (configuration not stated) returned a TGI of more than 100 µM.

`O=C1c2ccc3c4ccccc4n(Cc4ccccc4)c3c2C(=O)N1c1ccccc1` yielded a TGI of 35.7 µM. This counts as double-digit micromolar.

With `O=C1[C@H]2ON(c3ccccc3)C(c3ccc(Cl)cc3)[C@H]2C(=O)N1c1ccc(Cc2ccc(N3C(=O)[C@@H]4ON(c5ccccc5)C(c5ccc(Cl)cc5)[C@@H]4C3=O)cc2)cc1` (some centres not stated), the total growth inhibition concentration (TGI) is more than 100 µM.

Turning to `Oc1cc(C2OCCCO2)cc(O)c1O`, the concentration for total growth inhibition (TGI) was more than 100 µM.

A further assay deals with K-562 leukemia. Nature of the assay: DTP human tumour cell line panel, 48 h.
In turn, `COc1ccc(C2c3cc(OC)c(OC)cc3C(Cc3ccc([N+](=O)[O-])cc3)C2c2ccc([N+](=O)[O-])cc2)cc1OC` (configuration not stated) showed a TGI of more than 100 µM.

Consider `O=C1c2ccc3c4ccccc4n(Cc4ccccc4)c3c2C(=O)N1c1ccccc1`, for which the TGI turned out to be 34.2 µM.

In turn, `O=C1[C@H]2ON(c3ccccc3)C(c3ccc(Cl)cc3)[C@H]2C(=O)N1c1ccc(Cc2ccc(N3C(=O)[C@@H]4ON(c5ccccc5)C(c5ccc(Cl)cc5)[C@@H]4C3=O)cc2)cc1` (some centres not stated) came in with a TGI of more than 100 µM.

`Oc1cc(C2OCCCO2)cc(O)c1O` yielded a total growth inhibition concentration (TGI) of more than 100 µM.

For the next assay, the system named is KM12 colon. Nature of the assay: DTP human tumour cell line panel, 48 h.
With `COc1ccc(C2c3cc(OC)c(OC)cc3C(Cc3ccc([N+](=O)[O-])cc3)C2c2ccc([N+](=O)[O-])cc2)cc1OC` (configuration not stated), the TGI was more than 100 µM.

The compound `O=C1c2ccc3c4ccccc4n(Cc4ccccc4)c3c2C(=O)N1c1ccccc1` displayed a TGI of 30.6 µM. This lies in the double-digit micromolar range.

`O=C1[C@H]2ON(c3ccccc3)C(c3ccc(Cl)cc3)[C@H]2C(=O)N1c1ccc(Cc2ccc(N3C(=O)[C@@H]4ON(c5ccccc5)C(c5ccc(Cl)cc5)[C@@H]4C3=O)cc2)cc1` (some centres not stated) yielded a TGI of more than 100 µM.

The compound `Oc1cc(C2OCCCO2)cc(O)c1O` came in with a concentration for total growth inhibition (TGI) of more than 100 µM.

In a further assay the test system is KM20L2 colon. Kind of assay: DTP human tumour cell line panel, 48 h.
`COc1ccc(C2c3cc(OC)c(OC)cc3C(Cc3ccc([N+](=O)[O-])cc3)C2c2ccc([N+](=O)[O-])cc2)cc1OC` (configuration not stated) gave a TGI of more than 100 µM.

Compound `O=C1c2ccc3c4ccccc4n(Cc4ccccc4)c3c2C(=O)N1c1ccccc1` yielded a concentration for total growth inhibition (TGI) of 45.2 µM.

In turn, `O=C1[C@H]2ON(c3ccccc3)C(c3ccc(Cl)cc3)[C@H]2C(=O)N1c1ccc(Cc2ccc(N3C(=O)[C@@H]4ON(c5ccccc5)C(c5ccc(Cl)cc5)[C@@H]4C3=O)cc2)cc1` (some centres not stated) gave a concentration for total growth inhibition (TGI) of more than 100 µM.

Take `Oc1cc(C2OCCCO2)cc(O)c1O`: the total growth inhibition concentration (TGI) was more than 100 µM.

In the next assay the test system is LOX IMVI melanoma. Kind of assay: DTP human tumour cell line panel, 48 h.
Consider `COc1ccc(C2c3cc(OC)c(OC)cc3C(Cc3ccc([N+](=O)[O-])cc3)C2c2ccc([N+](=O)[O-])cc2)cc1OC` (configuration not stated), for which the TGI was more than 100 µM.

For the compound `O=C1c2ccc3c4ccccc4n(Cc4ccccc4)c3c2C(=O)N1c1ccccc1`, the TGI is 31.4 µM.

`O=C1[C@H]2ON(c3ccccc3)C(c3ccc(Cl)cc3)[C@H]2C(=O)N1c1ccc(Cc2ccc(N3C(=O)[C@@H]4ON(c5ccccc5)C(c5ccc(Cl)cc5)[C@@H]4C3=O)cc2)cc1` (some centres not stated) displayed a TGI of more than 100 µM.

A further assay has as its system LXFL 529 NSCLC. Nature of the assay: DTP human tumour cell line panel, 48 h.
In turn, `COc1ccc(C2c3cc(OC)c(OC)cc3C(Cc3ccc([N+](=O)[O-])cc3)C2c2ccc([N+](=O)[O-])cc2)cc1OC` (configuration not stated) showed a concentration for total growth inhibition (TGI) of more than 100 µM.

Consider `O=C1c2ccc3c4ccccc4n(Cc4ccccc4)c3c2C(=O)N1c1ccccc1`, for which the TGI was determined as 27.7 µM.

`O=C1[C@H]2ON(c3ccccc3)C(c3ccc(Cl)cc3)[C@H]2C(=O)N1c1ccc(Cc2ccc(N3C(=O)[C@@H]4ON(c5ccccc5)C(c5ccc(Cl)cc5)[C@@H]4C3=O)cc2)cc1` (some centres not stated): the concentration for total growth inhibition (TGI) is more than 100 µM.

As for `Oc1cc(C2OCCCO2)cc(O)c1O`, the TGI was more than 100 µM.

The next assay has as its system M14 melanoma. Kind of assay: DTP human tumour cell line panel, 48 h.
In turn, `COc1ccc(C2c3cc(OC)c(OC)cc3C(Cc3ccc([N+](=O)[O-])cc3)C2c2ccc([N+](=O)[O-])cc2)cc1OC` (configuration not stated) had a TGI of more than 100 µM.

In turn, `O=C1c2ccc3c4ccccc4n(Cc4ccccc4)c3c2C(=O)N1c1ccccc1` yielded a TGI of 27.9 µM.

The compound `O=C1[C@H]2ON(c3ccccc3)C(c3ccc(Cl)cc3)[C@H]2C(=O)N1c1ccc(Cc2ccc(N3C(=O)[C@@H]4ON(c5ccccc5)C(c5ccc(Cl)cc5)[C@@H]4C3=O)cc2)cc1` (some centres not stated) returned a TGI of 66.8 µM.

In turn, `Oc1cc(C2OCCCO2)cc(O)c1O` displayed a total growth inhibition concentration (TGI) of more than 100 µM.

A further assay relates to M19-MEL melanoma. Nature of the assay: DTP human tumour cell line panel, 48 h.
Consider `COc1ccc(C2c3cc(OC)c(OC)cc3C(Cc3ccc([N+](=O)[O-])cc3)C2c2ccc([N+](=O)[O-])cc2)cc1OC` (configuration not stated), for which the TGI is more than 100 µM.

As for `O=C1c2ccc3c4ccccc4n(Cc4ccccc4)c3c2C(=O)N1c1ccccc1`, the TGI was 33.2 µM.

As for `O=C1[C@H]2ON(c3ccccc3)C(c3ccc(Cl)cc3)[C@H]2C(=O)N1c1ccc(Cc2ccc(N3C(=O)[C@@H]4ON(c5ccccc5)C(c5ccc(Cl)cc5)[C@@H]4C3=O)cc2)cc1` (some centres not stated), the TGI is more than 100 µM.

In the case of `Oc1cc(C2OCCCO2)cc(O)c1O`, the TGI is more than 100 µM.

The subject of the next assay is MALME-3M melanoma. Nature of the assay: DTP human tumour cell line panel, 48 h.
`COc1ccc(C2c3cc(OC)c(OC)cc3C(Cc3ccc([N+](=O)[O-])cc3)C2c2ccc([N+](=O)[O-])cc2)cc1OC` (configuration not stated) registered a TGI of more than 100 µM.

Consider `O=C1c2ccc3c4ccccc4n(Cc4ccccc4)c3c2C(=O)N1c1ccccc1`, for which the concentration for total growth inhibition (TGI) is 29.9 µM.

Regarding `O=C1[C@H]2ON(c3ccccc3)C(c3ccc(Cl)cc3)[C@H]2C(=O)N1c1ccc(Cc2ccc(N3C(=O)[C@@H]4ON(c5ccccc5)C(c5ccc(Cl)cc5)[C@@H]4C3=O)cc2)cc1` (some centres not stated), the total growth inhibition concentration (TGI) was more than 100 µM.

For the compound `Oc1cc(C2OCCCO2)cc(O)c1O`, the concentration for total growth inhibition (TGI) is more than 100 µM.

In a further assay the test system is MOLT-4 leukemia. Nature of the assay: DTP human tumour cell line panel, 48 h.
In the case of `COc1ccc(C2c3cc(OC)c(OC)cc3C(Cc3ccc([N+](=O)[O-])cc3)C2c2ccc([N+](=O)[O-])cc2)cc1OC` (configuration not stated), the total growth inhibition concentration (TGI) was more than 100 µM.

`O=C1c2ccc3c4ccccc4n(Cc4ccccc4)c3c2C(=O)N1c1ccccc1` had a TGI of 9.54 µM.

On to `O=C1[C@H]2ON(c3ccccc3)C(c3ccc(Cl)cc3)[C@H]2C(=O)N1c1ccc(Cc2ccc(N3C(=O)[C@@H]4ON(c5ccccc5)C(c5ccc(Cl)cc5)[C@@H]4C3=O)cc2)cc1` (some centres not stated), for which the total growth inhibition concentration (TGI) is more than 100 µM.

For `Oc1cc(C2OCCCO2)cc(O)c1O`, the TGI was more than 100 µM.

In the next assay the test system is NCI-H226 lung. Nature of the assay: DTP human tumour cell line panel, 48 h.
Compound `COc1ccc(C2c3cc(OC)c(OC)cc3C(Cc3ccc([N+](=O)[O-])cc3)C2c2ccc([N+](=O)[O-])cc2)cc1OC` (configuration not stated) had a TGI of more than 100 µM.

Values taken from PubChem BioAssay (NCI).
